Assays:
[1] = tested on: Human non-small-cell lung carcinoma H460 cells; experiment: Cancer cell inhibition in vitro, crystal violet staining, cell viability; assay type: cell-based; conditions: for V(%) cancer cell viability / Absorbency of Stained Cells (M ± SD) / viability at 40 µg/mL / viability at 25 µg/mL: H460 cells, 24 hours; for Absorbency of Stained Cells (M ± SD): 590 nm; for inhibitory effect on proliferation of H460 cells (in words): P<0.01 compared with control; for viability at 40 µg/mL / viability at 25 µg/mL: Homo sapiens, NCI-H460, read-out: V(%) cancer cell viability; for inhibitory effect on proliferation of H460 cells compared with Rh2 (in words): P<0.05 compared with that of Rh2
Method: Composition: 20(S)-Rh2 was provided by Shenyang Pegasus Pharmaceutical R&D Co., China, with a purity of over 98%. The molecular weight for Rh2 was 622.3. Sapogenins PAM-120, PBM-100 and PAN-30 were derived from the process stated in Example 1. The molecular weights of PAM-120, PBM-100 and PAN-30 were respectively 442.7, 474.7 and 766.6, and the purity for each of the three agents was higher than 99%. Rh2, PAM-120, PBM-100 and PAN-30 were dissolved 1 gram each separately in 100 ml absolute ethanol and stored at 4° C. the agents were diluted with RPMI-1640 medium to the desired concentrations as shown in Table 1.
Cells: Human non-small-cell lung carcinoma H460 cells were incubated in RPMI-1640 medium added with 10% fetal calf serum, 100 units penicillin/ml, and 100 μg streptomycin/ml in 5% CO2 at 37° C.
In vitro treatment: H460 cells were seeded in 96-well flat-bottomed microtest-plates at 1.2×10^3 cells per well, six wells in each group, incubated in humidified 5% CO2 at 37° C. for 24 hours with or without the agents according to the schedule as shown below.
After the 24 hours of incubation, an equal volume of 10% formalin phosphate-buffered saline containing 0.2% crystal violet was added to each well and left at room temperature for 20 minutes. The plates were then washed twice with distilled water and dried at room temperature. The absorbency of the stained cells at 590 nm was then measured using an automatic microtest-plate reader. Average absorbency of the control wells (Ac) without any treatment was calculated, average absorbency of each treatment group (ATi) was determined, and then the average cell viability of each treatment group (Vi) was derived using the following formula: [formula] B. Result

[2] = tested on: Murine sarcoma 180 cells; experiment: Cancer bearing mice life prolongation test; assay type: in vivo, C57BL/6J mice; conditions: for DS50 (days of survival for 50% animals) / LPR(%) life prolongation rate: oral, lifetime or up to 120 days
Excerpt: Fifty (50) C57BL/6J mice weighing 18-22 g, without sex discrimination, were randomly assigned to one control group and four treatment groups, each with 10 animals. Murine sarcoma 180 cells were intraperitoneally transplanted to the mice. 20(S)-Rh2 was provided by Shenyang Pegasus Pharmaceutical R&D Co., China, with a purity of over 98%. The molecular weight for Rh2 was 622.3. The novel sapogenin PAM-120 was derived from the process described in Example 2 according to this invention. The molecular weight of PAM-120 was 442.7, and the purity for PAM-120 was higher than 99%. The drugs were prepared into a suspension form respectively. The mice were weighed daily prior to drug administration to determine the actual measurement of drug administered. Drug administration started from 24 hours post tumor inoculation. The mice in the two low-dose treatment groups were orally given the Rh2 and PAM-120 preparations using a gastric catheter at a daily dose of 10 mg/kg of Rh2 and 10 mg/kg of PAM-120 respectively for a lifetime or up to 120 days. The mice in the two high-dose treatment groups were orally given the Rh2 and PAM-120 preparations using a gastric catheter at a daily dose of 25 mg/kg of Rh2 and 25 mg/kg of PAM-120 respectively for a lifetime or up to 120 days. The mice in the control group were orally given a normal saline. For each group, the days of survival for 50% animals (DS50) and the average days of survival (ADS) were recorded. For groups containing one or more animals that could have lived longer than 120 days (the designed sacrifice day was d 120), the ADS would be so calculated that these animals were counted as if they had died on day 120, and a note would be made. The life prolongation rate (LPR) was calculated with the following formula: [formula] B. Result

[3] = tested on: human malignant glioma cells (U87); experiment: Mouse subcutaneous human malignant glioma (U87) model (FIG. 6); assay type: in vivo, Nude mice; conditions: 25 mg/ml; for tumor growth compared with PBS control animals (in words): treatment from day 7, tumor sizes measured day 7 and day 24
Method: FIG. 6 illustrates a graph of the therapeutic effect of PAM-120 on mouse subcutaneous human malignant glioma (U87) model. Nude mice were subcutaneously implanted with human malignant glioma cells (U87). On day 7 post tumor implantation, animals were treated with 25 mg/ml PAM-120 or equal dose of Rh2. Tumor sizes were measured on day 7 (before treatment) and day 24 (after the treatment).

[4] = tested on: human malignant glioma cells (U87); experiment: Mouse intracranial human malignant glioma (U87) model (FIG. 5); assay type: in vivo, Nude mice; conditions: 25 mg/kg and 50 mg/kg, treatment from day 10 post implantation, p<0.01 Kaplan Meier
Method: FIG. 5 illustrates a graph of the therapeutic effect of PAM-120 on mouse intracranial human malignant glioma (U87) model. Nude mice were intracranially implanted with human malignant glioma cells (U87). On day 10 post tumor implantation, animals were treated with various dosages of PAM-120.

Compound | V(%) cancer cell viability ([1]; high-dose 40 μg/ml) [%] | Absorbency of Stained Cells (M ± SD) ([1]; high-dose 40 μg/ml) | V(%) cancer cell viability ([1]; low-dose 25 μg/ml) [%] | Absorbency of Stained Cells (M ± SD) ([1]; low-dose 25 μg/ml) | inhibitory effect on proliferation of H460 cells (in words) [1] | DS50 (days of survival for 50% animals) ([2]; 10 mg/kg daily) [days] | LPR(%) life prolongation rate ([2]; 10 mg/kg daily) [%] | DS50 (days of survival for 50% animals) ([2]; 25 mg/kg daily) [days] | LPR(%) life prolongation rate ([2]; 25 mg/kg daily) [%] | tumor growth compared with PBS control animals (in words) [3] | viability at 40 µg/mL ([1]; high-dose 40 μg/ml) [%] | viability at 25 µg/mL ([1]; low-dose 25 μg/ml) [%] | inhibitory effect on proliferation of H460 cells compared with Rh2 (in words) [1] | mice that survived the whole 120 days, no tumors found postmortally ([2]; 25 mg/kg treatment group, 10 animals) | anti-cancer effect on murine sarcoma compared with Rh2 (in words) ([2]; P<0.01 compared with relevant Rh2 treatment dose groups) | life prolongation of mice bearing murine sarcoma compared with control (in words) ([2]; P<0.01 compared with the average days of survival in the control) | survival time after tumor implantation (in words) [4] | tumor sizes compared with Rh2 treated animals (in words) ([3]; equal dose of Rh2, day 24, p<0.05)
3-O-[β-D-glucopyranosyl(1→2)-β-D-glucopyranosyl]-dammara-20(22E)-diene-3,12-diol [PAN-30] | 41.49 | .147 ± .032 | 70.30 | .249 ± .045 | significant inhibitory effect |  |  |  |  |  |  |  |  |  |  |  |  | 
CC(C)=CCC[C@](C)(O)[C@H]1CC[C@]2(C)[C@@H]1[C@H](O)C[C@@H]1[C@@]3(C)CC[C@H](O[C@@H]4O[C@H](CO)[C@@H](O)[C@H](O)[C@H]4O)C(C)(C)[C@@H]3CC[C@]12C [Rh2, 3-O-β-D-glucopyranosyl-20(s)-protopanaxadiol, reference compound] | 50.99 | .181 ± .049 | 78.49 | .278 ± .030 |  | 22 | 68.0 | 41 | 201.4 | significantly inhibited tumor growth |  |  |  |  |  |  |  | 
C=C(CCC=C(C)C)C1CC[C@]2(C)C1[C@H](O)CC1[C@@]3(C)CC[C@H](O)C(C)(C)C3CC[C@]12C (stereo partly drawn) [PAM-120, Dammara-20(21)-diene-3,12-diol] |  | .125 ± .031 |  | .220 ± .051 | significant inhibitory effect | 38 | 162.6 | 77 | 448.3 | significantly inhibited tumor growth | 35.3 | 62.1 | notable increase in inhibitory effect | Two | Better anti-cancer effect | significant increase in life prolongation | significantly longer survival time | significantly smaller
C=C(C)[C@H](O)C/C=C(\C)C1CC[C@]2(C)C1[C@H](O)CC1[C@@]3(C)CC[C@H](O)C(C)(C)C3[C@@H](O)C[C@]12C (stereo partly drawn) [PBM-100] |  | .130 ± .019 |  | .223 ± .040 | significant inhibitory effect |  |  |  |  |  | 36.5 | 62.7 | notable increase in inhibitory effect |  |  |  |  | 

From patent US6888014B2, “Dammarane sapogenins, their use as anti-cancer agents, and a process for producing same” (PanaGin Pharmaceuticals Inc., priority 2001, dated 2005)
